# “Also recorded” adds a separate entry of the source.
# Experiments:
# female 129S6/SvEv mice = experiment: Forced swim test (FST), immobility time, after stress; settings: for Immobility in the FST (Day 1 and Day 2) vs saline: drug administered 1 hour after 3-shock CFC stressor; for Prophylactic efficacy against stress-induced depressive-like behavior: single injection 1 week before stressor
# male mice = settings: as previously shown; cited from earlier work
# [1] = Ovariectomized cohort, 1 week prophylactic drug, Forced Swim Test Day 1, Sham mice, K (10), (2R,6R)-HNK (0.025)
# [2] = Ovariectomized cohort, 1 week prophylactic drug, Forced Swim Test Day 1, Sham vs OVX, same drug, K (10), (2R,6R)-HNK (0.025)
# [3] = Ovariectomized, E2/P4 replacement, 1 week prophylactic drug, Forced Swim Test Day 2, K (10), (2R,6R)-HNK (0.025), FIG. 5F
# [4] = Ovariectomized, same drug, hormone Vehicle vs. E2/P4 replacement, 1 week prophylactic drug, Forced Swim Test Day 2, K (10), (2R,6R)-HNK (0.025), FIG. 5F
# [5] = Sal vs. K (2.5), Fisher's PLSD, 3 day prophylactic drug/Forced Swim Test Day 1
# [6] = Sal vs. K (10), Fisher's PLSD, 1 week prophylactic drug, learned helplessness stress, Forced Swim Test Day 1
# [7] = Sal vs. K (10), Fisher's PLSD, 3 day prophylactic drug/Forced Swim Test Day 1
# [8] = Sal vs. K (10), Fisher's PLSD, Antidepressant drug/Forced Swim Test Day 2
# [9] = Sal vs. K (30), Fisher's PLSD, 3 day prophylactic drug/Forced Swim Test Day 1
# [10] = Sham-operated females, 1 week prophylactic drug, Forced Swim Test Day 2, K (10), (2R,6R)-HNK (0.025), FIG. 5C
# [11] = female mice, listed as (R, S)-ketamine
structure (smiles),measurement,setting,value
"CNC1(c2ccccc2Cl)CCCCC1=O (racemic) [(R,S)-ketamine, (RS)-2-(2-chlorophenyl)-2-(methylamino)cyclohexanone]","p, Immobility Time Average (min 3-6), Fisher's PLSD, OVX Sal vs OVX drug","female 129S6/SvEv mice; Ovariectomized cohort, 1 week prophylactic drug, Forced Swim Test Day 1, OVX mice, K (10), (2R,6R)-HNK (0.025)",0.0570
same,"* (significance), Immobility Time (min 1-6), Sham Sal vs Sham drug",female 129S6/SvEv mice; [1],* (* p<0.05)
same,"* (significance), Immobility Time Average (min 3-6), Fisher's PLSD, Sham Sal vs Sham drug",female 129S6/SvEv mice; [1],* (* p<0.05)
same,"p, Immobility Time (min 1-6), Sham Sal vs Sham drug",female 129S6/SvEv mice; [1],0.0140
same,"p, Immobility Time Average (min 3-6), Fisher's PLSD, Sham Sal vs Sham drug",female 129S6/SvEv mice; [1],0.0114
same,"* (significance), Immobility Time Average (min 3-6), Fisher's PLSD, Sham drug vs OVX drug",female 129S6/SvEv mice; [2],* (* p<0.05)
same,"p, Immobility Time (min 1-6), Sham drug vs OVX drug",female 129S6/SvEv mice; [2],0.0533
same,"p, Immobility Time Average (min 3-6), Fisher's PLSD, Sham drug vs OVX drug",female 129S6/SvEv mice; [2],0.0233
same,"p, Fisher's PLSD, Immobility Time Average (min 3-6), OVX Sal vs. OVX drug","female 129S6/SvEv mice; Ovariectomized females, 1 week prophylactic drug, Forced Swim Test Day 2, K (10), (2R,6R)-HNK (0.025), FIG. 5C",0.7305
same,"p, Fisher's PLSD, Immobility Time Average (min 3-6), E2/P4 Sal vs. E2/P4 drug",female 129S6/SvEv mice; [3],0.0196
same,"significance (*), Fisher's PLSD, Immobility Time Average (min 3-6), E2/P4 Sal vs. E2/P4 drug",female 129S6/SvEv mice; [3],* (* p<0.05)
same,"p, Fisher's PLSD, Immobility Time Average (min 3-6), Vehicle Sal vs. Vehicle drug","female 129S6/SvEv mice; Ovariectomized, hormone Vehicle, 1 week prophylactic drug, Forced Swim Test Day 2, K (10), (2R,6R)-HNK (0.025), FIG. 5F",0.9193
same,"p, Fisher's PLSD, Immobility Time Average (min 3-6), Vehicle drug vs. E2/P4 drug",female 129S6/SvEv mice; [4],0.0089
same,"significance (*), Fisher's PLSD, Immobility Time Average (min 3-6), Vehicle drug vs. E2/P4 drug",female 129S6/SvEv mice; [4],** (** p<0.01)
same,"p, Immobility Time (min 1)",female 129S6/SvEv mice; [5],0.9401
same,"p, Immobility Time (min 2)",female 129S6/SvEv mice; [5],0.6027
same,"p, Immobility Time (min 3)",female 129S6/SvEv mice; [5],0.5146
same,"p, Immobility Time (min 4)",female 129S6/SvEv mice; [5],0.9632
same,"p, Immobility Time (min 5)",female 129S6/SvEv mice; [5],0.6706
same,"p, Immobility Time (min 6)",female 129S6/SvEv mice; [5],0.7202
same,"p, Immobility Time Average (min 3-6)",female 129S6/SvEv mice; [5],0.6884
same,"*, Immobility Time (min 1)",female 129S6/SvEv mice; [6],*** (*** p<0.0001)
same,"*, Immobility Time (min 2)",female 129S6/SvEv mice; [6],** (** p<0.01)
same,"*, Immobility Time (min 3)",female 129S6/SvEv mice; [6],** (** p<0.01)
same,"*, Immobility Time (min 4)",female 129S6/SvEv mice; [6],** (** p<0.01)
same,"*, Immobility Time (min 5)",female 129S6/SvEv mice; [6],** (** p<0.01)
same,"*, Immobility Time (min 6)",female 129S6/SvEv mice; [6],*** (*** p<0.0001)
same,"*, Immobility Time Average (min 1-6)",female 129S6/SvEv mice; [6],*** (*** p<0.0001)
same,"p, Immobility Time (min 1)",female 129S6/SvEv mice; [6],<0.0001
same,"p, Immobility Time (min 2)",female 129S6/SvEv mice; [6],0.0002
same,"p, Immobility Time (min 3)",female 129S6/SvEv mice; [6],0.0002
same,"p, Immobility Time (min 4)",female 129S6/SvEv mice; [6],0.0090
same,"p, Immobility Time (min 5)",female 129S6/SvEv mice; [6],0.0016
same,"p, Immobility Time (min 6)",female 129S6/SvEv mice; [6],0.0001
same,"p, Immobility Time Average (min 1-6)",female 129S6/SvEv mice; [6],<0.0001
same,"p, Immobility Time (min 1)",female 129S6/SvEv mice; [7],0.9371
same,"p, Immobility Time (min 2)",female 129S6/SvEv mice; [7],0.5853
same,"p, Immobility Time (min 3)",female 129S6/SvEv mice; [7],0.7490
same,"p, Immobility Time (min 4)",female 129S6/SvEv mice; [7],0.6033
same,"p, Immobility Time (min 5)",female 129S6/SvEv mice; [7],0.9482
same,"p, Immobility Time (min 6)",female 129S6/SvEv mice; [7],0.9756
same,"p, Immobility Time Average (min 3-6)",female 129S6/SvEv mice; [7],0.9690
same,"*, Immobility Time (min 1)",female 129S6/SvEv mice; [8],* (* p<0.05)
same,"p, Immobility Time (min 1)",female 129S6/SvEv mice; [8],0.0187
same,"p, Immobility Time (min 1)",female 129S6/SvEv mice; [9],0.6395
same,"p, Immobility Time (min 2)",female 129S6/SvEv mice; [9],0.9313
same,"p, Immobility Time (min 3)",female 129S6/SvEv mice; [9],0.7755
same,"p, Immobility Time (min 4)",female 129S6/SvEv mice; [9],0.5198
same,"p, Immobility Time (min 5)",female 129S6/SvEv mice; [9],0.9023
same,"p, Immobility Time (min 6)",female 129S6/SvEv mice; [9],0.5995
same,"p, Immobility Time Average (min 3-6)",female 129S6/SvEv mice; [9],0.8325
same,"p, Fisher's PLSD, Immobility Time Average (min 3-6), Sham drug vs. OVX drug","female 129S6/SvEv mice; Same drug, Sham vs. ovariectomized, 1 week prophylactic drug, Forced Swim Test Day 2, K (10), (2R,6R)-HNK (0.025), FIG. 5C",0.2375
same,"p, Fisher's PLSD, Immobility Time Average (min 3-6), Sham Sal vs. Sham drug",female 129S6/SvEv mice; [10],0.0405
same,"significance (*), Fisher's PLSD, Immobility Time Average (min 3-6), Sham Sal vs. Sham drug",female 129S6/SvEv mice; [10],* (* p<0.05)
same,Immobility in the FST (Day 1 and Day 2) vs saline,female 129S6/SvEv mice; female mice,"Neither (R,S)-ketamine nor (2R,6R)-HNK significantly affected immobility time"
same,Immobility in the FST (Day 1 and Day 2) vs saline,female 129S6/SvEv mice; [11],did not reduce immobility levels
same,Prophylactically effective dose in females,"female 129S6/SvEv mice; female mice, 1 week before stressor",10 mg/kg
same,Immobility in the FST vs saline,"female 129S6/SvEv mice; ovariectomized mice with cyclic E2 and P4 replacement, drug 1 week before CFC, listed as (R, S)-ketamine",significantly less immobile compared to control saline mice; also recorded: significantly reduced immobility
same,Prophylactic efficacy against stress-induced depressive-like behavior,female 129S6/SvEv mice; female mice,significantly reduced stress-induced depressive-like behavior; also recorded: significantly decreased stress-induced depressive-like behavior; also recorded: effective prophylactics against a variety of stressors; also recorded: protect against stress-induced depressive-like behavior
same,Prophylactic efficacy against stress-induced depressive-like behavior,female 129S6/SvEv mice; [11],prophylactic against stress-induced depressive-like behavior
same,Prophylactically effective dose in males,male mice,30 mg/kg

# Reference: patent US11491120B2, “Pharmacological prophylactics against stress-induced affective disorders in females” (The Trustees of Columbia University in the City of New York, priority 2017, dated 2022)
